Test results as given in patent US11780830B2, “Triazolone derivatives or salts thereof and pharmaceutical compositions comprising the same” (YUHAN CORPORATION, priority 2018, dated 2023).
Counter-ions that a name gives are not always drawn.

Assays:
Assay type in all cases: biochemical
[1] = molecular target: T1, recombinant human MAO-B (monoamine oxidase-B) (Homo sapiens, UniProt P27338); assay: Activity on recombinant human MAO-B, method similar to the VAP-1 assay; details: substrate 1 mM benzylamine; read-out: Inhibitory Activity (IC50, nM) MAO-B
T1 construct: purchased Sigma-Aldrich
T1 sequence (P27338 1-520): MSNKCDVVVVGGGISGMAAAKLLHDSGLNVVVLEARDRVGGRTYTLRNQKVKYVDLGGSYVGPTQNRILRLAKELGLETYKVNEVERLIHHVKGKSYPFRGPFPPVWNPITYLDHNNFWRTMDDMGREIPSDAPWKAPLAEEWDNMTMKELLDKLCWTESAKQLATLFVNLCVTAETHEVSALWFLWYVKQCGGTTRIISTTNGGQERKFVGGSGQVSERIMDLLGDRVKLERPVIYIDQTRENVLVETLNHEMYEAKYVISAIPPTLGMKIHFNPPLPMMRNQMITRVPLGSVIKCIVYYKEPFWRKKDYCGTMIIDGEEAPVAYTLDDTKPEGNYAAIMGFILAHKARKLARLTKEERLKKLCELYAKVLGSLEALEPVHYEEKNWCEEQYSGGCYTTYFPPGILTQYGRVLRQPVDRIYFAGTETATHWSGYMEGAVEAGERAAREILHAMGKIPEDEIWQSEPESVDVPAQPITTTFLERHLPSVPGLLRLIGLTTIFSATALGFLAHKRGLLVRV
How it was run: (§1)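 Enzyme preincubated with compound 30 min at 37 °C in 50 mM sodium phosphate pH 7.4, final DMSO below 1%. Substrate was 0.5 mM tyramine for MAO-A and 1 mM benzylamine for MAO-B, with 200 uM Amplex Red and 1 U/mL HRP. H2O2-coupled resorufin fluorescence (ex 544/em 590) followed over 1–2 h; 8-point 4-parameter IC50.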

[2] = molecular target: T2, recombinant human DAO (diamine oxidase) (Homo sapiens, UniProt P19801); assay: Activity on recombinant human DAO, method similar to the VAP-1 assay; details: substrate 1 mM putrescine; read-out: Inhibitory Activity (IC50, nM) DAO
T2 construct: purchased R&D systems
T2 sequence (P19801 20-751): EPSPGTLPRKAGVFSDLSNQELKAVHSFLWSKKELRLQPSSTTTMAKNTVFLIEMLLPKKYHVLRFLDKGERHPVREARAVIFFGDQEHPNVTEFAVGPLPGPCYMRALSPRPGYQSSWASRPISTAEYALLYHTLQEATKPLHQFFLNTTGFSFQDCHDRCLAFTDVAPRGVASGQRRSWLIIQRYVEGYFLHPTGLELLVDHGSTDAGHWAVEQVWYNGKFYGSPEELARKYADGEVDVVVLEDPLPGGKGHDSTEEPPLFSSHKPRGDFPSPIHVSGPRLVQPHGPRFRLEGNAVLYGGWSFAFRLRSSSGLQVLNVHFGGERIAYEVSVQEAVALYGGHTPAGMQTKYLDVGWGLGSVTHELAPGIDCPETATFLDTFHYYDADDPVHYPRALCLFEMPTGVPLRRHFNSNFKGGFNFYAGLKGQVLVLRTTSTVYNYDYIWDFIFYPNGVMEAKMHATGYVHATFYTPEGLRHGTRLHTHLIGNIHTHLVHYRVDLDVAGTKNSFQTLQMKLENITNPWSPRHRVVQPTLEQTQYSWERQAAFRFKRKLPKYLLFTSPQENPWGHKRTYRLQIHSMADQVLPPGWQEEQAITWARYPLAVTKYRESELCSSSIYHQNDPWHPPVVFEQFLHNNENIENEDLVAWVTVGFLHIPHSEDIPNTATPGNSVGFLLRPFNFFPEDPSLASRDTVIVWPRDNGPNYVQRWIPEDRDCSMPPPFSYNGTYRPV
How it was run: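 Inhibition of recombinant human diamine oxidase (DAO, R&D systems) was assessed by the same approach as the VAP-1 assay, using 1 mM putrescine as substrate. Hydrogen peroxide formed was detected through an HRP-coupled Amplex Red reaction yielding fluorescent resorufin, read at 544 nm excitation and 590 nm emission. IC50 values came from four-parameter logistic fitting in GraphPad Prism.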

recombinant human VAP-1 = molecular target: T3, recombinant human VAP-1 (Homo sapiens, UniProt Q16853); assay: Activity on recombinant human VAP-1, HRP-coupled Amplex Red hydrogen peroxide assay; details: substrate 1 mM benzylamine; compound incubated with enzyme at 37° C. for 30 minutes; pH 7.4; read-out: Inhibitory Activity (IC50, nM) human VAP-1
T3 construct: purchased R&D systems
T3 sequence (Q16853 1-763): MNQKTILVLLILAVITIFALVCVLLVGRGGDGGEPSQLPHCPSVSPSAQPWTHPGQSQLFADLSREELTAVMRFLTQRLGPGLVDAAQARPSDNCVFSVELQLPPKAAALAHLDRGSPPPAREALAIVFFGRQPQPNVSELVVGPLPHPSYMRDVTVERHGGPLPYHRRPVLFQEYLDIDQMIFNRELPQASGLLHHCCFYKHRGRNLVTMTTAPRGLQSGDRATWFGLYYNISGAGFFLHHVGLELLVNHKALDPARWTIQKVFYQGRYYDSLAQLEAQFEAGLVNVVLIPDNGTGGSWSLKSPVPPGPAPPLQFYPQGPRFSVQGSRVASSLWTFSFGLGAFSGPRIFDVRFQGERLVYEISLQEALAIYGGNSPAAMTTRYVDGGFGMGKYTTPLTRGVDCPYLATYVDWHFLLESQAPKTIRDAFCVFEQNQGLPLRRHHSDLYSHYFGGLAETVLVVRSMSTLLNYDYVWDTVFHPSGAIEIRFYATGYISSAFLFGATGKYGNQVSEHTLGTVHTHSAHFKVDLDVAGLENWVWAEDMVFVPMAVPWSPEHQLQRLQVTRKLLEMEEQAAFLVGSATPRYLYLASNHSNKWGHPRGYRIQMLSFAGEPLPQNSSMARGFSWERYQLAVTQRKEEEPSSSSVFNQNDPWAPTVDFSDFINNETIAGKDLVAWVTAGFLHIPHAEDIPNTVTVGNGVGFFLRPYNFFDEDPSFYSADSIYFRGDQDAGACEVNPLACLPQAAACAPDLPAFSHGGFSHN
How it was run: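 Enzyme in 50 mM sodium phosphate pH 7.4 preincubated with compound 30 min at 37 °C, then 1 mM benzylamine, 200 µM Amplex Red and 1 U/mL HRP added. H2O2-derived resorufin fluorescence (ex 544/em 590 nm) followed over 1–2 h; signal-rate decrease versus DMSO control, 8-point curve, four-parameter logistic IC50.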

[3] = molecular target: T4, recombinant human MAO-A (monoamine oxidase-A) (Homo sapiens, UniProt P21397); assay: Activity on recombinant human MAO-A, method similar to the VAP-1 assay; details: substrate 0.5 mM tyramine; read-out: Inhibitory Activity (IC50, nM) MAO-A
T4 construct: purchased Sigma-Aldrich
T4 sequence (P21397 1-527): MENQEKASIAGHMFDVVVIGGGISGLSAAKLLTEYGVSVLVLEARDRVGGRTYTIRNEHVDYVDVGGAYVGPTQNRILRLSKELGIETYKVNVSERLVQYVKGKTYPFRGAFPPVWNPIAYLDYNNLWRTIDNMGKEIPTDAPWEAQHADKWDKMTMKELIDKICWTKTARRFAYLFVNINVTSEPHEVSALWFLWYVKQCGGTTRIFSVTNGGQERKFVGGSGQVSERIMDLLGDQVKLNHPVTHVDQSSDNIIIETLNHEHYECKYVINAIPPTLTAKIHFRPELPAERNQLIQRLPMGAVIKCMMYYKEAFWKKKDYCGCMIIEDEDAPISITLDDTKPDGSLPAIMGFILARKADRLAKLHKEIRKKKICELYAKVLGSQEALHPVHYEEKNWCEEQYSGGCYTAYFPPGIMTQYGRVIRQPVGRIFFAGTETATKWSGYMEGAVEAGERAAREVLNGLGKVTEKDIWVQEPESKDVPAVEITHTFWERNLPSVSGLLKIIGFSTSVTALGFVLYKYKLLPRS
How it was run: as §1

With `Cc1c(-c2ccc(Cn3cnn(C/C(=C/F)CN)c3=O)s2)ccc2c1NCCO2` [Example 108, 2-[(E)-2-(aminomethyl)-3-fluoro-allyl]-4-[[5-(5-methyl-3,4-dihydro-2H-1,4-benzoxazin-6-yl)-2-thienyl]methyl]-1,2,4-triazol-3-one] the IC50 [1] was 3200 nM, the IC50 [2] was 250 nM and the IC50 (recombinant human VAP-1) was 0.8 nM. It also gave an IC50 [3] of 21000 nM.
`NC/C(=C\F)Cn1ncn(Cc2ccc(-c3ccc4c(c3)CCCO4)s2)c1=O` [Example 109, 2-[(2E)-2-(aminomethyl)-3-fluoroprop-2-en-1-yl]-4-[5-(3,4-dihydro-2H-chromen-6-yl)thiophen-2-yl]methyl-2,4-dihydro-3H-1,2,4-triazol-3-one hydrochloride] showed an IC50 [1] of 104 nM, an IC50 [2] of 2540 nM and an IC50 (recombinant human VAP-1) of 2.7 nM. The IC50 [3] was 25300 nM.
Work on `NC/C(=C\F)Cn1ncn(Cc2ccc(-c3ccc4c(c3)CCCN4)s2)c1=O` [Example 110, 2-[(2E)-2-(aminomethyl)-3-fluoroprop-2-en-1-yl]-4-[5-(1,2,3,4-tetrahydroquinolin-6-yl)thiophen-2-yl]methyl-2,4-dihydro-3H-1,2,4-triazol-3-one hydrochloride] yielded an IC50 [1] of 370 nM, an IC50 [2] of 220 nM and an IC50 (recombinant human VAP-1) of 0.9 nM. The IC50 [3] was 32000 nM.
In the case of `NC/C(=C\F)Cn1ncn(Cc2ccc(-c3cnc4c(c3)CCCN4)s2)c1=O` [Example 111, 2-[(E)-2-(aminomethyl)-3-fluoro-allyl]-4-[[5-(5,6,7,8-tetrahydro-1,8-naphthyridin-3-yl)-2-thienyl]methyl]-1,2,4-triazol-3-one], the IC50 [1] is reported as 5900 nM, the IC50 [2] is reported as 530 nM and the IC50 (recombinant human VAP-1) is reported as 0.6 nM. It also gave an IC50 [3] greater than 100000 nM.
`CNc1ncc2cc(-c3ccc(Cn4cnn(C/C(=C/F)CN)c4=O)s3)ccc2n1` [Example 112, 2-[(2E)-2-(aminomethyl)-3-fluoroprop-2-en-1-yl]-4-(5-[2-(methylamino)quinazolin-6-yl]thiophen-2-ylmethyl)-2,4-dihydro-3H-1,2,4-triazol-3-one hydrochloride] gave an IC50 [1] of 950 nM, an IC50 [2] of 310 nM and an IC50 (recombinant human VAP-1) of 0.9 nM. It also gave an IC50 [3] greater than 100000 nM.
`NC/C(=C\F)Cn1ncn(Cc2ccc(-c3cccc4ncccc34)s2)c1=O` [Example 113, 2-[(2E)-2-(aminomethyl)-3-fluoroprop-2-en-1-yl]-4-[5-(quinolin-5-yl)thiophen-2-yl]methyl-2,4-dihydro-3H-1,2,4-triazol-3-one hydrochloride] gave an IC50 [1] of 160 nM, an IC50 [2] of 340 nM and an IC50 (recombinant human VAP-1) of 0.8 nM. It also gave an IC50 [3] greater than 100000 nM.
`NC/C(=C\F)Cn1ncn(Cc2ccc(-c3cccc4cnccc34)s2)c1=O` [Example 114, 2-[(2E)-2-(aminomethyl)-3-fluoroprop-2-en-1-yl]-4-[5-(isoquinolin-5-yl)thiophen-2-yl]methyl-2,4-dihydro-3H-1,2,4-triazol-3-one hydrochloride] gave an IC50 [1] of 23 nM, an IC50 [2] of 110 nM and an IC50 (recombinant human VAP-1) of 0.3 nM. It also gave an IC50 [3] of 143000 nM.
Compound `NC/C(=C\F)Cn1ncn(Cc2ccc(-c3c[nH]c4ncccc34)s2)c1=O` [Example 115, 2-[(2E)-2-(aminomethyl)-3-fluoroprop-2-en-1-yl]-4-[5-(1H-pyrrolo[2,3-b]pyridin-3-yl)thiophen-2-yl]methyl-2,4-dihydro-3H-1,2,4-triazol-3-one hydrochloride] has an IC50 [1] of 120 nM, an IC50 [2] of 860 nM and an IC50 (recombinant human VAP-1) of 0.7 nM. For the same compound, the IC50 [3] was greater than 100000 nM.
Work on `NC/C(=C\F)Cn1ncn(Cc2ccc(/C=C/c3ccc(O)cc3)s2)c1=O` [Example 116, 2-[(2E)-2-(aminomethyl)-3-fluoroprop-2-en-1-yl]-4-(5-[(E)-2-(4-hydroxyphenyl)ethenyl]thiophen-2-ylmethyl)-2,4-dihydro-3H-1,2,4-triazol-3-one hydrochloride] yielded an IC50 [1] of 180 nM, an IC50 [2] of 1700 nM and an IC50 (recombinant human VAP-1) of 0.6 nM. The IC50 [3] was 4400 nM.
`NC/C(=C\F)Cn1ncn(Cc2ccc(/C=C/c3ccc(F)cc3)s2)c1=O` [Example 117, 2-[(2E)-2-(aminomethyl)-3-fluoroprop-2-en-1-yl]-4-(5-[(E)-2-(4-fluorophenyl)ethenyl]thiophen-2-ylmethyl)-2,4-dihydro-3H-1,2,4-triazol-3-one hydrochloride] gave an IC50 [1] of 270 nM, an IC50 [2] of 1200 nM and an IC50 (recombinant human VAP-1) of 1.3 nM. For the same compound, the IC50 [3] was 93000 nM.
In the case of `NC/C(=C\F)Cn1ncn(Cc2ccc(/C=C/c3cccc(F)c3)s2)c1=O` [Example 118, 2-[(2E)-2-(aminomethyl)-3-fluoroprop-2-en-1-yl]-4-(5-[(E)-2-(3-fluorophenyl)ethenyl]thiophen-2-ylmethyl)-2,4-dihydro-3H-1,2,4-triazol-3-one hydrochloride], the IC50 [1] is reported as 58 nM, the IC50 [2] is reported as 560 nM and the IC50 (recombinant human VAP-1) is reported as 1.1 nM. The IC50 [3] was 140000 nM.
For `NC/C(=C\F)Cn1ncn(Cc2ccc(/C=C/c3ccc(C(F)(F)F)cc3)s2)c1=O` [Example 119, 2-[(E)-2-(aminomethyl)-3-fluoro-allyl]-4-[[5-[(E)-2-[4-(trifluoromethyl)phenyl]vinyl]-2-thienyl]methyl]-1,2,4-triazol-3-one hydrochloride], the IC50 [1] was 1200 nM, the IC50 [2] was 860 nM and the IC50 (recombinant human VAP-1) was 1.8 nM. For the same compound, the IC50 [3] was greater than 100000 nM.
